Test in all cases: Competitive cysteine profiling, probe competition (Table 2B)
What all share (assay type): binding

For assay [1], the target named is T1, Q8WXK3 (Homo sapiens, UniProt Q8WXK3).
T1 construct: 200 μL of lysate containing 5 mg/ml proteome was treated with 2 μL of 100× compound stock; endogenous in cells
From the text: (§1) The following 96-well sample prep protocol was used for sample preparation.

For assay [2], the target named is T2, Q9UJX4 (Homo sapiens, UniProt Q9UJX4).
T2 construct: Cells were resuspended in cold PBS on ice and sonicated with a probe sonicator to achieve lysis; endogenous in cells
T2 sequence (Q9UJX4 whole entry): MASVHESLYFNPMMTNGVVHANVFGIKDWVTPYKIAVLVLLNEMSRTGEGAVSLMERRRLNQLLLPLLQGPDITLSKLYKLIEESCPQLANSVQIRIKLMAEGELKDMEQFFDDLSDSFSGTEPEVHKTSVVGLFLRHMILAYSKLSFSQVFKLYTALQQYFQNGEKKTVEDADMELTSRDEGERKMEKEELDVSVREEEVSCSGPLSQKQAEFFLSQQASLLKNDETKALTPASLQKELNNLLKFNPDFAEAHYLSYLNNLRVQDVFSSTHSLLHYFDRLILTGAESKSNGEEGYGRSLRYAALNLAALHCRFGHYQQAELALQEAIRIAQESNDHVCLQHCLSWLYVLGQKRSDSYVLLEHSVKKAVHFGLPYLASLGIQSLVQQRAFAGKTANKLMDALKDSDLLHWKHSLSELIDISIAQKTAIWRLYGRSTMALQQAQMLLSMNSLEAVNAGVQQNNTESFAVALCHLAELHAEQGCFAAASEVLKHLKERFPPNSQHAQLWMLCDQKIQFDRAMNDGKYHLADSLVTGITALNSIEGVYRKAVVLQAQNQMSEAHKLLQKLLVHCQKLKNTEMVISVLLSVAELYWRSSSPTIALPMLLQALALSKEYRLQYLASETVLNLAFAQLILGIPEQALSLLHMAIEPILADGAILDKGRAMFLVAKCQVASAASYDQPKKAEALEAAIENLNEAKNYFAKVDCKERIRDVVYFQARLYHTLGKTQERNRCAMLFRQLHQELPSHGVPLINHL
Excerpt: as §1

The target in assay [3] is T3, Q9P2G1 (Homo sapiens, UniProt Q9P2G1).
T3 construct: Cells were resuspended in cold PBS on ice and sonicated with a probe sonicator to achieve lysis; endogenous in cells
T3 sequence (Q9P2G1 1-1089): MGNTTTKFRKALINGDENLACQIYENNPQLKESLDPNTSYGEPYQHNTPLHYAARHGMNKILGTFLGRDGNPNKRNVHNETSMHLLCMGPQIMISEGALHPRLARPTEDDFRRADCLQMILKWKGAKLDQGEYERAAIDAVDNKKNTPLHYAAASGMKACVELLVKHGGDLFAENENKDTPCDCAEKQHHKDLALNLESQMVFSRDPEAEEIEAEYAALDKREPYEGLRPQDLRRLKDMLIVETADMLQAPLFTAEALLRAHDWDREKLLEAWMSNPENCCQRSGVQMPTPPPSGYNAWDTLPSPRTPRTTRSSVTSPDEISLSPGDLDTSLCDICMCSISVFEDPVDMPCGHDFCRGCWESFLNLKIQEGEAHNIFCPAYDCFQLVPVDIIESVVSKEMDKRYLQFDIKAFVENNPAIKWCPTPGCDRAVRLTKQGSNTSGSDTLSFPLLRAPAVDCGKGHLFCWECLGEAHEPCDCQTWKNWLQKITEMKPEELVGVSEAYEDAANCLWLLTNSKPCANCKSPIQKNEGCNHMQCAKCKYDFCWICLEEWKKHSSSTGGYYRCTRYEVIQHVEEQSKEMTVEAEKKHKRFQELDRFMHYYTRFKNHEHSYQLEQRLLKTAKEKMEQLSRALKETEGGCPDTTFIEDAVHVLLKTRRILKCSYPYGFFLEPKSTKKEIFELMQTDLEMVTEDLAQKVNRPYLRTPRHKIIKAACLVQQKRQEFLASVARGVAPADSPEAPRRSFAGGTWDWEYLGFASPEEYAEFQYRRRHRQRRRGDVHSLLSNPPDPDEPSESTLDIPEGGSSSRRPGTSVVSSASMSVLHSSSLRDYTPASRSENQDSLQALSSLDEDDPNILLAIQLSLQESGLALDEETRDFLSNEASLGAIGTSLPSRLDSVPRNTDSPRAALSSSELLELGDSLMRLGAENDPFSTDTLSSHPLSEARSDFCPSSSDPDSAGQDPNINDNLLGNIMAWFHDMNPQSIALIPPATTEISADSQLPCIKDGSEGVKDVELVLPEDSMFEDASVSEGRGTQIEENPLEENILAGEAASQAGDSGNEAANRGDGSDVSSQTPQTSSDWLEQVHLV
Excerpt: as §1

The target in assay [4] is T4, Q7Z569 (Homo sapiens, UniProt Q7Z569).
T4 construct: 200 μL of lysate containing 5 mg/ml proteome was treated with 2 μL of 100× compound stock; endogenous in cells
T4 sequence (Q7Z569 whole entry): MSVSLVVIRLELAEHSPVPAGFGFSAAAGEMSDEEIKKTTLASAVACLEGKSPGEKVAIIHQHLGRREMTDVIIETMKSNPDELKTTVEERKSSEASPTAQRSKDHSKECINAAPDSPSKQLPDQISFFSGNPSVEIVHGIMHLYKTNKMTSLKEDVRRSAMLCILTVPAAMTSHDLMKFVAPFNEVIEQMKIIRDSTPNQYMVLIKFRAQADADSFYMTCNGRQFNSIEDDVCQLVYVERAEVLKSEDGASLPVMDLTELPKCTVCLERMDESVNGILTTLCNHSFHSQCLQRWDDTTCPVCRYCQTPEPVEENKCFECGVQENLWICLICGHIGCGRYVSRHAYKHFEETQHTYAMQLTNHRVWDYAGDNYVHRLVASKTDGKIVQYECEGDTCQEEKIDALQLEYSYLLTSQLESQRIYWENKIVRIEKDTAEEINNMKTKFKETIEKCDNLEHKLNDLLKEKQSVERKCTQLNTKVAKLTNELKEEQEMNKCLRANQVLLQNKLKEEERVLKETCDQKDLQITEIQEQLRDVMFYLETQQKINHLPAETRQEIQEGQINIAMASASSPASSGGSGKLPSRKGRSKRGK
Excerpt: as §1

Assay [5] has as its target T5, Q9H1A4 (Homo sapiens, UniProt Q9H1A4).
T5 construct: Cells were resuspended in cold PBS on ice and sonicated with a probe sonicator to achieve lysis; endogenous in cells
Excerpt: as §1

Assay [6] concerns the target T6, Q9C0C7 (Homo sapiens, UniProt Q9C0C7).
T6 construct: Cells were resuspended in cold PBS on ice and sonicated with a probe sonicator to achieve lysis; endogenous in cells
T6 sequence (Q9C0C7 1-1298): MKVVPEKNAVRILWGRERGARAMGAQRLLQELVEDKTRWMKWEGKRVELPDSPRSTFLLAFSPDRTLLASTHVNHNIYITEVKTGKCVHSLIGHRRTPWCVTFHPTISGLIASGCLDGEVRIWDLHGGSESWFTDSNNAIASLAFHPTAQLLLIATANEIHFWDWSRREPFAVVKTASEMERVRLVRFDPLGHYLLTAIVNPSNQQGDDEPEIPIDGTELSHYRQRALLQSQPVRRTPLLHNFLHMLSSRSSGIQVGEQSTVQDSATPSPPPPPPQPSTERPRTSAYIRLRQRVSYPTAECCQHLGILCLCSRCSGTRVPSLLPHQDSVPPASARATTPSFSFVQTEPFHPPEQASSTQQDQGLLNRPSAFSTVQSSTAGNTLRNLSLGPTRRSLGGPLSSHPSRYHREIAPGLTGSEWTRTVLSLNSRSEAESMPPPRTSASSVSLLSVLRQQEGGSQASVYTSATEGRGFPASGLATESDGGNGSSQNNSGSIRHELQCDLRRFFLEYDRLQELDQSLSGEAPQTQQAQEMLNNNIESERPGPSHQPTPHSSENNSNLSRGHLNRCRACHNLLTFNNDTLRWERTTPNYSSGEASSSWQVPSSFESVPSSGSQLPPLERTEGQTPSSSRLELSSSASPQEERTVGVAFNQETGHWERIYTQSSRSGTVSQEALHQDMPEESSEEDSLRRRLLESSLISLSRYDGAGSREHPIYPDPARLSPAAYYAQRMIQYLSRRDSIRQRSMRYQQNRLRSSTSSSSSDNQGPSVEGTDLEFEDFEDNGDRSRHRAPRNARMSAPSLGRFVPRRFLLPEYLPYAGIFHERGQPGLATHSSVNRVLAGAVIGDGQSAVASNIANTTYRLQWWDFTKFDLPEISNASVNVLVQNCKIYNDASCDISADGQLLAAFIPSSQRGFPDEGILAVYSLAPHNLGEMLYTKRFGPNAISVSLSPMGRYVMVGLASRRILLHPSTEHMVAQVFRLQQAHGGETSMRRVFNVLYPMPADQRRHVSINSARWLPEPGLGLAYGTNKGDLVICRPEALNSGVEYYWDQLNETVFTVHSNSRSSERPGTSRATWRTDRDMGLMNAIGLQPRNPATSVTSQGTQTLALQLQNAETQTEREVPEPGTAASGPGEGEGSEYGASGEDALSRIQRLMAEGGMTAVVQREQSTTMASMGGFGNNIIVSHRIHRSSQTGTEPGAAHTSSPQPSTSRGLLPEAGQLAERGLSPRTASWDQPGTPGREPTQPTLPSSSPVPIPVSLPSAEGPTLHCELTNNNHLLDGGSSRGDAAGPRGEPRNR
Excerpt: as §1

[7] abbreviates: read-out: KB02_100 uM_percent_inhibition.
[8] abbreviates: read-out: KB05_100 uM_percent_inhibition.

Like-named read-outs stand apart in the source and are kept apart here.

T5 sequence (Q9H1A4 whole entry): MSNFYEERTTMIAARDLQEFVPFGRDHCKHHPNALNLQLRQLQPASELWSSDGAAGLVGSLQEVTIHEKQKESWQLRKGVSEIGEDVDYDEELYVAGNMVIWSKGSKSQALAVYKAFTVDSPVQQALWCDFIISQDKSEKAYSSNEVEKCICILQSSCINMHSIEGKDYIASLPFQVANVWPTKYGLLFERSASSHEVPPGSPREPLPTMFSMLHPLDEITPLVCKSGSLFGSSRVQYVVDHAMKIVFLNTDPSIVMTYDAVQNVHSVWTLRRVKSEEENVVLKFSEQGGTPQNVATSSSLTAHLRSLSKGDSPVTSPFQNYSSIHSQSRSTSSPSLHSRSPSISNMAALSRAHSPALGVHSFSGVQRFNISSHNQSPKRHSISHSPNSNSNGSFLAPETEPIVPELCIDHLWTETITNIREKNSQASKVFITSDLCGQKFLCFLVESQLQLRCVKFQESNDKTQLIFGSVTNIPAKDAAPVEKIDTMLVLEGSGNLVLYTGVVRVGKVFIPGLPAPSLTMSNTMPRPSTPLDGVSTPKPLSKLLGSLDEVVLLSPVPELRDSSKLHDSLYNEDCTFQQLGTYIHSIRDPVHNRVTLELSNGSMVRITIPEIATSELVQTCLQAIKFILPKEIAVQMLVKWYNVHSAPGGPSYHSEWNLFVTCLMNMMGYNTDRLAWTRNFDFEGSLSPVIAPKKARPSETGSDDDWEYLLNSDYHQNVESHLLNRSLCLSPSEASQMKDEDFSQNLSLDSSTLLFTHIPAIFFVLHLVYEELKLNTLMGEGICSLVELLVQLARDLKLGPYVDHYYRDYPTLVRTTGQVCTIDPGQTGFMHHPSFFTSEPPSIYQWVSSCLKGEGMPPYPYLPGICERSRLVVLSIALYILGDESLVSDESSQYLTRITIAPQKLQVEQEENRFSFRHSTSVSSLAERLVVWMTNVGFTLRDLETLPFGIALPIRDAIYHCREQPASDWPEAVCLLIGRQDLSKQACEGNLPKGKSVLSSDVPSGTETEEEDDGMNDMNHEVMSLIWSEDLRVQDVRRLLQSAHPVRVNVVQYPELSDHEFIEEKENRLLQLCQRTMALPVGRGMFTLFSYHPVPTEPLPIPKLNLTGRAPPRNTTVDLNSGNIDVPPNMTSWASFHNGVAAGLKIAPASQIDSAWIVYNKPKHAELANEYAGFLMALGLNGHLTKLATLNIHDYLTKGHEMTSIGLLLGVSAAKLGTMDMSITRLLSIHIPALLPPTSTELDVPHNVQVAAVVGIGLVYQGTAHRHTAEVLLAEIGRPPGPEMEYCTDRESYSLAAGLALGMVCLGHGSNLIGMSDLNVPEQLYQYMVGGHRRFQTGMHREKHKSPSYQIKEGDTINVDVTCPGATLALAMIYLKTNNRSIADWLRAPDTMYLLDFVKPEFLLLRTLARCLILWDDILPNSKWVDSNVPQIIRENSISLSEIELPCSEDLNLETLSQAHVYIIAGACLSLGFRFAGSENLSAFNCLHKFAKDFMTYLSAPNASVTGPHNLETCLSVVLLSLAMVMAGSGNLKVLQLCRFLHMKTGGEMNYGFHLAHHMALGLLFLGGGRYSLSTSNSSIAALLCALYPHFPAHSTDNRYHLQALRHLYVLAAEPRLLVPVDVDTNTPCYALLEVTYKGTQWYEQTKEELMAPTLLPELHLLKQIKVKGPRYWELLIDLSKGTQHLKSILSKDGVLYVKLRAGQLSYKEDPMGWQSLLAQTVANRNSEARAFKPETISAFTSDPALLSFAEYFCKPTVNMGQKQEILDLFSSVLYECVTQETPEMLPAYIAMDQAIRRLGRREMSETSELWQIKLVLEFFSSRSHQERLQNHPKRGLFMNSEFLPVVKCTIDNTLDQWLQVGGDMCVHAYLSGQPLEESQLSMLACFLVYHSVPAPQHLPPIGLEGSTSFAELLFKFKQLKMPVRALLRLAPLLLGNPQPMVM
T1 sequence (Q8WXK3 whole entry): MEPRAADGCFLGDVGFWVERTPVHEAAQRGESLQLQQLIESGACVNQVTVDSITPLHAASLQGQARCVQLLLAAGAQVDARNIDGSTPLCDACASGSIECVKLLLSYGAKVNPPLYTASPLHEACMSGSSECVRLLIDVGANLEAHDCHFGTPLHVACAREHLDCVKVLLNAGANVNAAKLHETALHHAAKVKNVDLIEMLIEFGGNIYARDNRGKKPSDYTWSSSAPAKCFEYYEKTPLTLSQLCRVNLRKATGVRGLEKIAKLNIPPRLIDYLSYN

Take `O=C(CCl)Nc1cc(C(F)(F)F)cc(C(F)(F)F)c1` [KBO3]: the “KB03_100 uM_percent_inhibition” value in assay [1] (100 uM) is reported as 7%; in assay [2] (100 uM), 31%; in assay [3] (100 uM) it was 29%; in assay [4] (100 uM), 10%.

For the molecule `COc1ccc2c(c1)CCCN2C(=O)CCl` [KB02], the “KB02_100 uM_percent_inhibition” value in assay [5] (100 uM) is listed as 21%; in assay [6] (100 uM) it was 49%. In addition, the inhibition at 100 µM was 24% in assay [5] (setting [7]) and 48% in assay [6] (setting [7]). In addition, the inhibition at 500 µM in assay [1] (500 uM, read-out: KB02_500 uM_percent_inhibition) is 44%.

On to `C=CC(=O)N(c1ccccc1)c1ccc(Br)cc1` [KB05], for which the inhibition at 100 µM in assay [5] (setting [8]) is 29%; in assay [6] (setting [8]) it was 23%; in assay [2] (100 uM, read-out: KB05_100 uM_percent_inhibition), 9%; in assay [3] (setting [8]), 41%; in assay [4] (setting [8]) it was 33%. The “KB05_100 uM_percent_inhibition” value was 25% in assay [6] (100 uM) and 22% in assay [3] (100 uM). Besides, the inhibition at 500 µM in assay [2] (500 uM, read-out: KB05_500 uM_percent_inhibition) is 74%.

Values taken from patent US20200239530A1, “COMPOUNDS AND METHODS OF MODULATING PROTEIN DEGRADATION” (Vividion Therapeutics, Inc., priority 2017, published 2020).
